Assay results taken from article PMC8989888, “Development of optimized drug-like small molecule inhibitors of the SARS-CoV-2 3CL protease for treatment of COVID-19” (Nature Communications, 2022).
Read-outs that look alike come from different tables or passages of the source.

Biological target: SARS-CoV-2 3CL protease (Severe acute respiratory syndrome coronavirus 2, UniProt P0DTD1)
Assay type: biochemical
Design: Avg: unit not given here
Conditions: for Inhibition at 10 µM: 10 µM compound; for Inhibition at 100 µM: 100 µM compound; for IC50 / LogIC50: Figure S1 and S2
[1] = Conc 10 µM, mean response (inhibition) of dose-response curve
[2] = Conc 15 µM, mean response (inhibition) of dose-response curve
[3] = Conc 20 µM, mean response (inhibition) of dose-response curve
[4] = Conc 50 µM, mean response (inhibition) of dose-response curve
[5] = Conc 100 µM, mean response (inhibition) of dose-response curve
[6] = Conc 200 µM, mean response (inhibition) of dose-response curve
[7] = dose-response curve of fragment hit
[8] = log of IC50 (µM), dose-response curve fit
[9] = Conc 10 µM, average response of dose-response curve
[10] = Conc 15 µM, average response of dose-response curve
[11] = Conc 20 µM, average response of dose-response curve
[12] = Conc 50 µM, average response of dose-response curve
[13] = Conc 100 µM, average response of dose-response curve
[14] = Conc 200 µM, average response of dose-response curve
[15] = dose-response retest of fragment hits

Row | SMILES | Inhibition at 10 µM [%] | Inhibition at 100 µM [%] | Avg [1] | Avg [2] | Avg [3] | Avg [4] | Avg [5] | Avg [6] | IC50 [7] [µM] | LogIC50 (log10 of IC50 in µM) | Avg [9] | Avg [10] | Avg [11] | Avg [12] | Avg [13] | Avg [14] | IC50 [15] [µM] | LogIC50 (log of IC50 in µM) | also measured
1 | Cc1cc(C(=O)CCl)c(C)n1-c1nccs1 [Z56979277] | 64 | 100 | 63.6 | 80.9 | 90.9 | 95.6 | 101.9 | 108.5 |  |  |  |  |  |  |  |  |  |  | 
2 | Cc1cc(C(=O)CCl)c(C)n1-c1ncn[nH]1 [Z57014347] | 35 | 100 | 35.1 | 51.1 | 60.8 | 75.5 | 101.2 | 107.2 | 15.4 | 1.188 |  |  |  |  |  |  |  |  | 
3 | CN(c1ccc(C(=O)CCl)cc1)S(C)(=O)=O [Z57982062] | 47 | 94 | 47.1 | 48.1 | 62 | 79.8 | 93.6 | 99.3 | 13.5 | 1.131 |  |  |  |  |  |  |  |  | 
4 | CCN(c1ccc(C(=O)CCl)cc1)S(C)(=O)=O [Z85932823] | 25 | 84 | 25.1 | 25.8 | 34.6 | 58.2 | 84.1 | 87.1 | 39.7 | 1.598 |  |  |  |  |  |  |  |  | 
5 | CC1C(=O)Nc2ccc(C(=O)CCl)cc21 (centres unmarked) [Z94598687] | 3 | 85 | 3 | 12.3 | 39.4 | 61.2 | 84.9 | 105.3 | 33.9 | 1.53 |  |  |  |  |  |  |  |  | 
6 | O=C(CCl)NC(=O)OCc1ccccc1 [Z108566700] | 22 | 100 |  |  |  |  |  |  |  |  |  |  |  |  |  |  |  |  | Avg (Conc 10 µM): 22.2; Avg (Conc 15 µM): 41.7; Avg (Conc 20 µM): 51.1; Avg (Conc 50 µM): 86.4; Avg (Conc 100 µM): 100.3; Avg (Conc 200 µM): 108.1; IC50 (dose-response curve fit): 19 µM; LogIC50 [8]: 1.279
7 | Cc1cc(C(=O)CCl)c(C)n1-c1ccccn1 [Z126674012] | 36 | 91 |  |  |  |  |  |  |  |  |  |  |  |  |  |  |  |  | Avg (Conc 10 µM): 35.8; Avg (Conc 15 µM): 45.3; Avg (Conc 20 µM): 61.2; Avg (Conc 50 µM): 80.4; Avg (Conc 100 µM): 91.2; Avg (Conc 200 µM): 99.9; IC50 (dose-response curve fit): 15.8 µM; LogIC50 [8]: 1.197
8 | O=C(CCl)N1CCN(Cc2cccs2)CC1 [Z166605372] | 3 | 70 |  |  |  |  |  |  |  |  | 3.4 | 11.2 | 27.4 | 53.6 | 69.5 | 93 | 47.5 | 1.677 | 
9 | Cc1ccccc1CN1CCN(C(=O)CCl)CC1 [Z208155076] | 18 | 85 |  |  |  |  |  |  |  |  | 18.2 | 5.8 | 36.6 | 64.8 | 84.6 | 98.1 | 35.8 | 1.554 | 
10 | O=C(CCl)c1ccc(N2CCCC2=O)cc1 [Z221603842] | 47 | 87 |  |  |  |  |  |  |  |  | 46.5 | 48.2 | 62.2 | 77.1 | 86.9 | 83.1 | 14 | 1.147 | 
11 | NS(=O)(=O)c1ccc(S)nc1 [Z235344787] | 6 | 100 |  |  |  |  |  |  |  |  | 5.7 | 20.7 | 38.6 | 106.4 | 110.1 | 111.3 | 22.3 | 1.348 | 
12 | O=C(NCCc1ccc(F)cc1)n1ccnc1 [Z235353843] | 30 | 96 |  |  |  |  |  |  |  |  | 29.9 | 15.5 | 42.1 | 82.2 | 95.9 | 102.1 | 27.6 | 1.441 | 
13 | O=C(c1ccc(S)nc1)N1CCCC1 [Z235362941] | 0 | 100 |  |  |  |  |  |  |  |  | 0.4 | 23.9 | 31.4 | 102.7 | 108.6 | 116.6 | 23.9 | 1.378 | 
14 | Cc1ccc(CNC(=O)n2ccnc2)cc1 [Z295462498] | 21 | 100 | 21 | 37.9 | 33.6 | 84.1 | 101.3 | 104 | 26.7 | 1.426 |  |  |  |  |  |  |  |  | 
15 | N#Cc1ccc(S)nc1 [Z367678594] | 16 | 100 | 16.1 | 29.5 | 30.5 | 107.9 | 110.6 | 113.2 | 25 | 1.398 |  |  |  |  |  |  |  |  | 
16 | O=C(CCl)N1CCc2[nH]c3ccccc3c2C1 [Z398556976] | 43 | 100 | 42.8 | 70.8 | 74.6 | 93.9 | 100.2 | 98.1 | 11 | 1.042 |  |  |  |  |  |  |  |  | 
17 | CSc1cc(C(=O)CCl)ccc1NC(C)=O [Z449369022] |  | 95 | 12.5 | 32 | 31 | 67.6 | 95.3 | 107.3 | 31 | 1.491 |  |  |  |  |  |  |  |  | 
18 | NC(=O)c1csc(C(=O)CCl)c1 [Z802671642] | 16 | 80 | 15.9 | 29.5 | 35.2 | 47.6 | 80.1 | 92.5 | 42.6 | 1.6293 |  |  |  |  |  |  |  |  | 
19 | NC(=O)CCc1ccc(C(=O)CCl)cc1 [Z1203664423] | 22 | 88 |  |  |  |  |  |  |  |  |  |  |  |  |  |  |  |  | Avg (Conc 10 µM): 21.6; Avg (Conc 15 µM): 41.7; Avg (Conc 20 µM): 49.5; Avg (Conc 50 µM): 69.9; Avg (Conc 100 µM): 88.3; Avg (Conc 200 µM): 103.3; IC50 (dose-response curve fit): 22 µM; LogIC50 [8]: 1.341
20 | O=C(NCC1CCCCC1O)c1cccnc1S (centres unmarked) [Z1252265470] | 0 | 100 |  |  |  |  |  |  |  |  |  |  |  |  |  |  |  |  | Avg (Conc 10 µM): -0.7; Avg (Conc 15 µM): 22.4; Avg (Conc 20 µM): 33.5; Avg (Conc 50 µM): 82; Avg (Conc 100 µM): 99.6; Avg (Conc 200 µM): 99.1; IC50 (dose-response curve fit): 25.5 µM; LogIC50 [8]: 1.406
